Measured values: patent US20260022142A1, “MACROCYCLIC IMMUNOMODULATORS” (Bristol-Myers Squibb Company, priority 2022, published 2026)
Numbered stars: 1 amine (or outer) side, 2 acyl side, 3 side chain; on linkers, the order of the positions; unused ones are H or OH. Bridge positions count the residues as written; N and C are the ends. Square brackets hold non-standard residues; d marks the D form. Peptide text beside a SMILES is read from it. * marks the point of attachment. ξ: configuration not given here. X3 = CC(C)(F)C(=N)NCCC[C@H](N[*:1])C(=O)[*:2]; X7 = N=C(NCCC[C@H](N[*:1])C(=O)[*:2])C1CC1; Bip = N[C@@H](Cc1ccc(-c2ccccc2)cc1)C(=O)O; Phe(3-Me) = Cc1cccc(C[C@H](N)C(=O)O)c1; Cyclopropanecarbonyl = O=C(C1CC1)*; Lys(Me2) = CN(C)CCCC[C@H](N)C(=O)O; Pyrazinecarbonyl = O=C(c1cnccn1)*; hArg = N=C(N)NCCCC[C@H](N)C(=O)O; 4Pal = N[C@@H](Cc1ccncc1)C(=O)O; Cha = N[C@@H](CC1CCCCC1)C(=O)O; Cit = NC(=O)NCCC[C@H](N)C(=O)O; Thr(3ξ) = CC(O)[C@H](N)C(=O)O; 12Ado = NCCCCCCCCCCCC(=O)O; hSer = N[C@@H](CCO)C(=O)O; Carboxymethyl = O=C(O)C*; Orn = NCCC[C@H](N)C(=O)O; Aun = NCCCCCCCCCCC(=O)O; Dab = NCC[C@H](N)C(=O)O; Dap = NC[C@H](N)C(=O)O; X11 = CC(C)(F)C(=O)*

target: T1, PD-1/PD-L1 interaction (PE-labeled human PD-L1-Ig binding to Jurkat cell line over-expressing human PD-1) (Homo sapiens, UniProt Q15116); assay: Jurkat-PD-1 Cell Binding High-Content Screening Assay (CBA); assay type: cell-based; settings: Jurkat cell line over-expressing human PD-1; PE-labeled PD-L1-Ig 20 nM final; read-out: Jurkat hPD1-PDL1 IC50
T1 construct: expressed in transfected cells; host or cells: Jurkat
How it was run: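 Binding of fluorescent PD-L1-Ig (20 nM final) to Jurkat-PD-1 cells was measured by automated imaging after 1 h, following a 2 h compound pre-treatment at 37° C.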

T1 sequence (Q15116 25-288): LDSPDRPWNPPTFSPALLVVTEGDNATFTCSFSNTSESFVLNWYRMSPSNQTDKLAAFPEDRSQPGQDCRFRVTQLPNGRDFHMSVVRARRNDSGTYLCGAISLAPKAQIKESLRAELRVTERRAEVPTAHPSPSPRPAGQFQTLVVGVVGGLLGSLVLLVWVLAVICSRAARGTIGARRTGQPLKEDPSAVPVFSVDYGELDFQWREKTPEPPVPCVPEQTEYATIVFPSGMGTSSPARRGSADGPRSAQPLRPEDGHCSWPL

Structure (SMILES)	IC50 [nM]
CC(=O)NCCCC[C@@H]1NC(=O)CSC[C@@H](C(=O)N[C@@H](CCCN)C(=O)N[C@@H](CO)C(=O)NCCCCCCCCCCCC(=O)O)NC(=O)[C@H](CO)NC(=O)[C@H](C(C)C)NC(=O)[C@H](CC2CCCCC2)NC(=O)[C@H](CCCNC(=N)N)NC(=O)[C@@H](CC(C)C)NC(=O)[C@H](CCCN)NC(=O)[C@H](CCCNC(=N)N)NC(=O)[C@H](Cc2ccc(-c3ccccc3)cc2)NC(=O)[C@H](C(C)C)NC(=O)[C@H](Cc2cccc(C)c2)NC(=O)[C@H](CC(=O)O)NC(=O)[C@H](Cc2ccc(OCC(=O)O)cc2)NC1=O [Compound 3577] ({CH2CO}-K(Ac)Y(Carboxymethyl)D[Phe(3-Me)]V[Bip]R[Orn][dL]R[Cha]VSC[Orn]S[12Ado]-OH; thioether N-14)	31.1
Cc1cccc(C[C@@H]2NC(=O)[C@H](CC(=O)O)NC(=O)[C@H](Cc3ccc(OCC(=O)O)cc3)NC(=O)[C@H](CCCCNC(=N)N)NC(=O)CSC[C@@H](C(=O)N[C@@H](CCCN)C(=O)N[C@@H](CO)C(=O)NCCCCCCCCCCCC(=O)O)NC(=O)[C@H](CO)NC(=O)[C@H](C(C)C)NC(=O)[C@H](CC3CCCCC3)NC(=O)[C@H](CCN)NC(=O)[C@@H](CC(C)C)NC(=O)[C@H](CCCNC(=N)N)NC(=O)[C@H](CCCNC(=N)C3CC3)NC(=O)[C@H](Cc3ccc(-c4ccccc4)cc3)NC(=O)[C@H](C(C)C)NC2=O)c1 [Compound 3578] ({CH2CO}-[hArg]Y(Carboxymethyl)D[Phe(3-Me)]V[Bip][X7]R[dL][Dab][Cha]VSC[Orn]S[12Ado]-OH; thioether N-14)	21.5
Cc1cccc(C[C@@H]2NC(=O)[C@H](CC(=O)O)NC(=O)[C@H](Cc3ccc(OCC(=O)O)cc3)NC(=O)[C@H](CCCCNC(=N)N)NC(=O)CSC[C@@H](C(=O)N[C@@H](CCN)C(=O)NCCCCCCCCCCC(=O)O)NC(=O)[C@H](C(C)O)NC(=O)[C@H](C(C)C)NC(=O)[C@H](CC3CCCCC3)NC(=O)[C@H](CCN)NC(=O)[C@@H](CC(C)C)NC(=O)[C@H](CCCN)NC(=O)[C@H](CCCNC(=N)C(C)(C)F)NC(=O)[C@H](Cc3ccc(-c4ccccc4)cc3)NC(=O)[C@H](Cc3ccc(O)cc3)NC2=O)c1 (stereo partly drawn) [Compound 3579] ({CH2CO}-[hArg]Y(Carboxymethyl)D[Phe(3-Me)]Y[Bip][X3][Orn][dL][Dab][Cha]V[Thr(3ξ)]C[Dab][Aun]-OH; thioether N-14)	18.2
CC(=O)NCCCC[C@@H]1NC(=O)[C@H](Cc2ccc(-c3ccccc3)cc2)NC(=O)[C@H](C(C)C)NC(=O)[C@H](Cc2cccc(C)c2)NC(=O)[C@H](CC(=O)O)NC(=O)[C@H](Cc2ccc(OCC(=O)O)cc2)NC(=O)[C@H](CCCCNC(=N)N)NC(=O)CSC[C@@H](C(=O)N[C@@H](CCN)C(=O)NCCCCCCCCCCC(=O)O)NC(=O)[C@H](C(C)O)NC(=O)[C@H](C(C)C)NC(=O)[C@H](CC2CCCCC2)NC(=O)[C@H](CCN)NC(=O)[C@@H](CC(C)C)NC(=O)[C@H](CCCN)NC1=O (stereo partly drawn) [Compound 3580] ({CH2CO}-[hArg]Y(Carboxymethyl)D[Phe(3-Me)]V[Bip]K(Ac)[Orn][dL][Dab][Cha]V[Thr(3ξ)]C[Dab][Aun]-OH; thioether N-14)	16.8
Cc1cccc(C[C@@H]2NC(=O)[C@H](CC(=O)O)NC(=O)[C@H](Cc3ccc(OCC(=O)O)cc3)NC(=O)[C@H](CCCCNC(=N)N)NC(=O)CSC[C@@H](C(=O)N[C@@H](CCN)C(=O)NCCCCCCCCCCC(=O)O)NC(=O)[C@H](C(C)O)NC(=O)[C@H](C(C)C)NC(=O)[C@H](CC3CCCCC3)NC(=O)[C@H](CCN)NC(=O)[C@@H](CC(C)C)NC(=O)[C@H](CCCN)NC(=O)[C@H](CCCNC(=O)C3CC3)NC(=O)[C@H](Cc3ccc(-c4ccccc4)cc3)NC(=O)[C@H](Cc3ccc(O)cc3)NC2=O)c1 (stereo partly drawn) [Compound 3581] ({CH2CO}-[hArg]Y(Carboxymethyl)D[Phe(3-Me)]Y[Bip][Orn](Cyclopropanecarbonyl)[Orn][dL][Dab][Cha]V[Thr(3ξ)]C[Dab][Aun]-OH; thioether N-14)	16.2
Cc1cccc(C[C@@H]2NC(=O)[C@H](CC(=O)O)NC(=O)[C@H](Cc3ccc(OCC(=O)O)cc3)NC(=O)[C@H](CCCCN(C)C)NC(=O)CSC[C@@H](C(=O)N[C@@H](CCCN)C(=O)N[C@@H](CO)C(=O)NCCCCCCCCCCCC(=O)O)NC(=O)[C@H](C(C)O)NC(=O)[C@H](CCO)NC(=O)[C@H](CC3CCCCC3)NC(=O)[C@H](CCN)NC(=O)[C@@H](CC(C)C)NC(=O)[C@H](CCCN)NC(=O)[C@H](CCCNC(N)=O)NC(=O)[C@H](Cc3ccc(-c4ccccc4)cc3)NC(=O)[C@H](C(C)C)NC2=O)c1 (stereo partly drawn) [Compound 3582] ({CH2CO}-[Lys(Me2)]Y(Carboxymethyl)D[Phe(3-Me)]V[Bip][Cit][Orn][dL][Dab][Cha][hSer][Thr(3ξ)]C[Orn]S[12Ado]-OH; thioether N-14)	71
Cc1cccc(C[C@@H]2NC(=O)[C@H](CC(=O)O)NC(=O)[C@H](Cc3ccc(OCC(=O)O)cc3)NC(=O)[C@H](CCCNC(=O)c3cnccn3)NC(=O)CSC[C@@H](C(=O)N[C@@H](CCCN)C(=O)N[C@@H](CO)C(=O)NCCCCCCCCCCCC(=O)O)NC(=O)[C@H](C(C)O)NC(=O)[C@H](CCO)NC(=O)[C@H](CC3CCCCC3)NC(=O)[C@H](CCN)NC(=O)[C@@H](CC(C)C)NC(=O)[C@H](CCCN)NC(=O)[C@H](CCCNC(N)=O)NC(=O)[C@H](Cc3ccc(-c4ccccc4)cc3)NC(=O)[C@H](C(C)C)NC2=O)c1 (stereo partly drawn) [Compound 3583] ({CH2CO}-[Orn](Pyrazinecarbonyl)Y(Carboxymethyl)D[Phe(3-Me)]V[Bip][Cit][Orn][dL][Dab][Cha][hSer][Thr(3ξ)]C[Orn]S[12Ado]-OH; thioether N-14)	20.5
Cc1cccc(C[C@@H]2NC(=O)[C@H](CC(=O)O)NC(=O)[C@H](Cc3ccc(OCC(=O)O)cc3)NC(=O)[C@H](Cc3ccncc3)NC(=O)CSC[C@@H](C(=O)N[C@@H](CCCN)C(=O)N[C@@H](CO)C(=O)NCCCCCCCCCCCC(=O)O)NC(=O)[C@H](C(C)O)NC(=O)[C@H](C(C)C)NC(=O)[C@H](CC3CCCCC3)NC(=O)[C@H](CCN)NC(=O)[C@@H](CC(C)C)NC(=O)[C@H](CCCN)NC(=O)[C@H](CCCNC(=O)C(C)(C)F)NC(=O)[C@H](Cc3ccc(-c4ccccc4)cc3)NC(=O)[C@H](Cc3ccc(O)cc3)NC2=O)c1 (stereo partly drawn) [Compound 3584] ({CH2CO}-[4Pal]Y(Carboxymethyl)D[Phe(3-Me)]Y[Bip][Orn](X11)[Orn][dL][Dab][Cha]V[Thr(3ξ)]C[Orn]S[12Ado]-OH; thioether N-14)	38.2
Cc1cccc(C[C@@H]2NC(=O)[C@H](CC(=O)O)NC(=O)[C@H](Cc3ccc(OCC(=O)O)cc3)NC(=O)[C@H](Cc3ccncc3)NC(=O)CSC[C@@H](C(=O)N[C@@H](CCCN)C(=O)N[C@@H](CO)C(=O)NCCCCCCCCCCCC(=O)O)NC(=O)[C@H](C(C)O)NC(=O)[C@H](C(C)C)NC(=O)[C@H](CC3CCCCC3)NC(=O)[C@H](CCN)NC(=O)[C@@H](CC(C)C)NC(=O)[C@H](CCCN)NC(=O)[C@H](CCCNC(N)=O)NC(=O)[C@H](Cc3ccc(-c4ccccc4)cc3)NC(=O)[C@H](C(C)C)NC2=O)c1 (stereo partly drawn) [Compound 3585] ({CH2CO}-[4Pal]Y(Carboxymethyl)D[Phe(3-Me)]V[Bip][Cit][Orn][dL][Dab][Cha]V[Thr(3ξ)]C[Orn]S[12Ado]-OH; thioether N-14)	30.8
Cc1cccc(C[C@@H]2NC(=O)[C@H](CC(=O)O)NC(=O)[C@H](Cc3ccc(OCC(=O)O)cc3)NC(=O)[C@H](CN)NC(=O)CSC[C@@H](C(=O)N[C@@H](CCCN)C(=O)N[C@@H](CO)C(=O)NCCCCCCCCCCCC(=O)O)NC(=O)[C@H](C(C)O)NC(=O)[C@H](C(C)C)NC(=O)[C@H](CC3CCCCC3)NC(=O)[C@H](CCN)NC(=O)[C@@H](CC(C)C)NC(=O)[C@H](CCCN)NC(=O)[C@H](CCCNC(N)=O)NC(=O)[C@H](Cc3ccc(-c4ccccc4)cc3)NC(=O)[C@H](Cc3ccc(O)cc3)NC2=O)c1 (stereo partly drawn) [Compound 3586] ({CH2CO}-[Dap]Y(Carboxymethyl)D[Phe(3-Me)]Y[Bip][Cit][Orn][dL][Dab][Cha]V[Thr(3ξ)]C[Orn]S[12Ado]-OH; thioether N-14)	30.1
Cc1cccc(C[C@@H]2NC(=O)[C@H](CC(=O)O)NC(=O)[C@H](Cc3ccc(OCC(=O)O)cc3)NC(=O)[C@H](CN)NC(=O)CSC[C@@H](C(=O)N[C@@H](CCCN)C(=O)N[C@@H](CO)C(=O)NCCCCCCCCCCCC(=O)O)NC(=O)[C@H](C(C)O)NC(=O)[C@H](CCO)NC(=O)[C@H](CC3CCCCC3)NC(=O)[C@H](CCN)NC(=O)[C@@H](CC(C)C)NC(=O)[C@H](CCCN)NC(=O)[C@H](CCCNC(N)=O)NC(=O)[C@H](Cc3ccc(-c4ccccc4)cc3)NC(=O)[C@H](C(C)C)NC2=O)c1 (stereo partly drawn) [Compound 3587] ({CH2CO}-[Dap]Y(Carboxymethyl)D[Phe(3-Me)]V[Bip][Cit][Orn][dL][Dab][Cha][hSer][Thr(3ξ)]C[Orn]S[12Ado]-OH; thioether N-14)	33.5
Cc1cccc(C[C@@H]2NC(=O)[C@H](CC(=O)O)NC(=O)[C@H](Cc3ccc(OCC(=O)O)cc3)NC(=O)[C@H](CN)NC(=O)CSC[C@@H](C(=O)N[C@@H](CCN)C(=O)N[C@@H](CO)C(=O)NCCCCCCCCCCCC(=O)O)NC(=O)[C@H](CCCN)NC(=O)[C@H](C(C)C)NC(=O)[C@H](CC3CCCCC3)NC(=O)[C@H](CCN)NC(=O)[C@@H](CC(C)C)NC(=O)[C@H](CCCN)NC(=O)[C@H](Cc3ccc(O)cc3)NC(=O)[C@H](Cc3ccc(-c4ccccc4)cc3)NC(=O)[C@H](C(C)C)NC2=O)c1 [Compound 3588] ({CH2CO}-[Dap]Y(Carboxymethyl)D[Phe(3-Me)]V[Bip]Y[Orn][dL][Dab][Cha]V[Orn]C[Dab]S[12Ado]-OH; thioether N-14)	16.7
Cc1cccc(C[C@@H]2NC(=O)[C@H](CC(=O)O)NC(=O)[C@H](Cc3ccc(OCC(=O)O)cc3)NC(=O)[C@H](CN)NC(=O)CSC[C@@H](C(=O)N[C@@H](CCCN)C(=O)N[C@@H](CO)C(=O)NCCCCCCCCCCCC(=O)O)NC(=O)[C@H](CCCN)NC(=O)[C@H](C(C)C)NC(=O)[C@H](CC3CCCCC3)NC(=O)[C@H](CCN)NC(=O)[C@@H](CC(C)C)NC(=O)[C@H](CCCN)NC(=O)[C@H](Cc3ccc(O)cc3)NC(=O)[C@H](Cc3ccc(-c4ccccc4)cc3)NC(=O)[C@H](C(C)C)NC2=O)c1 [Compound 3589] ({CH2CO}-[Dap]Y(Carboxymethyl)D[Phe(3-Me)]V[Bip]Y[Orn][dL][Dab][Cha]V[Orn]C[Orn]S[12Ado]-OH; thioether N-14)	27.8
